Data published in US20210214560A1, “COMPOUND, COLORING COMPOSITION, INK, TONER, COLORING RESIN COMPOSITION, AND COMPOSITION FOR DYEING FIBER” (FUJIFILM Corporation, priority 2018, published 2021).

Assays:
Assay type in all cases: physicochemical
[1] = Evaluation 2 of heat stability, powder heated at 200° C. for 5 minutes; conditions: oven 200° C. for 5 minutes, A2/A0×100, absorbance in tetrahydrofuran
Procedure: (§1) Heat stability of each compound was evaluated by the following procedure. 10 mg of the powder of each compound was dissolved in 500 mL of tetrahydrofuran, and the absorption spectrum was measured to obtain a reference absorbance (A0). On the other hand, 10 mg of the powder of each compound was weighed in a 4 cm square aluminum cup, placed in an oven, and heated at 200° C. for 5 minutes. The entire amount of the powder after heating was dissolved in 500 mL of tetrahydrofuran, and the absorption spectrum was measured to obtain an absorbance (A2) after the heating test. The residual rate of each compound was calculated by the following expression to evaluate heat stability.
Residual rate of compound (%)=A2/A0×100

[2] = Evaluation of maximum absorption wavelength (absorption spectrum in tetrahydrofuran solution); conditions: 1×10^−6 mol/L
[3] = Evaluation of heat stability (heat resistance), powder heated at 180° C. for 5 minutes; conditions: oven 180° C. for 5 minutes, A/A0×100, absorbance in tetrahydrofuran
Procedure: as §1, with “180°” for “200°”, “(A)” for “(A2)”
Residual rate of compound (%)=A/A0×100

[4] = optical path length 10 mm (Table 9)
[5] = optical path length 10 mm (Table 7)

Row | Structure (SMILES) | Residual rate of compound [1] [%] | Absorption maximum wavelength [2, 4] [nm] | Molar light absorption coefficient [2, 4] [L/mol/cm] | Absorption maximum wavelength [2, 5] [nm] | Molar light absorption coefficient [2, 5] | Residual rate of compound [3] [%]
1 | CC(C)NC(=O)OCC1(C)Nc2cccc3c(N=Nc4ccc(N=Nc5ccccc5Cl)c5ccccc45)ccc(c23)N1 (centres unmarked) [(1-21)] |  |  |  | 623 | 33,900 L · mol^−1 · cm^−1 | 84
2 | CC1(CC#N)Nc2cccc3c(N=Nc4ccc(N=Nc5ccccc5Cl)c5ccccc45)ccc(c23)N1 (centres unmarked) [(1-61)] |  |  |  | 604 | 34,100 L · mol^−1 · cm^−1 | 77
3 | CC1(C)Nc2cccc3c(N=Nc4ccc(N=Nc5ccccc5C#N)c5ccccc45)ccc(c23)N1 [(1-38)] |  |  |  | 648 | 28,900 L · mol^−1 · cm^−1 | 92
4 | CCCCC(CC)C(=O)OCC1(C)Nc2cccc3c(N=Nc4ccc(N=Nc5ccccc5Cl)c5ccccc45)ccc(c23)N1 (centres unmarked) [(1-20)] |  |  |  | 623 | 33,800 L · mol^−1 · cm^−1 | 84
5 | CC(C)(C)C1(C)Nc2cccc3c(N=Nc4ccc(N=Nc5ccccc5Cl)c5ccccc45)ccc(c23)N1 (centres unmarked) [(1-8)] |  |  |  | 631 | 35,200 L · mol^−1 · cm^−1 | 81
6 | COC(=O)c1ccccc1N=Nc1ccc(N=Nc2ccc3c4c(cccc24)NC(C)(C)N3)c2ccccc12 [(1-40)] |  |  |  | 599 | 26,600 L · mol^−1 · cm^−1 | 80
7 | CC1(C)Nc2cccc3c(N=Nc4ccc(N=Nc5ccc(F)cc5)c5ccccc45)ccc(c23)N1 [Comparative compound B, reference compound] |  |  |  |  |  | 64
8 | CC1(C)Nc2cccc3c(N=Nc4ccc(N=Nc5ccccc5C(=O)c5ccccc5)c5ccccc45)ccc(c23)N1 [(1-59)] |  |  |  | 639 | 35,700 L · mol^−1 · cm^−1 | 82
9 | CCCCCC1(C)Nc2cccc3c(N=Nc4ccc(N=Nc5ccccc5Cl)c5ccccc45)ccc(c23)N1 (centres unmarked) [(1-9)] |  |  |  | 629 | 35,900 L · mol^−1 · cm^−1 | 84
10 | CC1CCCCC12Nc1cccc3c(N=Nc4ccc(N=Nc5ccccc5Cl)c5ccccc45)ccc(c13)N2 (centres unmarked) [(1-27)] |  |  |  | 629 | 34,800 L · mol^−1 · cm^−1 | 81
11 | CCCC1(C)Nc2cccc3c(N=Nc4ccc(N=Nc5ccccc5Cl)c5ccccc45)ccc(c23)N1 (centres unmarked) [Compound (1-3)] |  |  |  | 629 | 34,400 L · mol^−1 · cm^−1 | 82
12 | CC1(Cc2ccccc2)Nc2cccc3c(N=Nc4ccc(N=Nc5ccccc5Cl)c5ccccc45)ccc(c23)N1 (centres unmarked) [(1-64)] |  |  |  | 631 | 36,800 L · mol^−1 · cm^−1 | 73
13 | CC1(CC(N)=O)Nc2cccc3c(N=Nc4ccc(N=Nc5ccccc5Cl)c5ccccc45)ccc(c23)N1 (centres unmarked) [(1-62)] |  |  |  | 607 | 34,200 L · mol^−1 · cm^−1 | 74
14 | CC1(C)Nc2cccc3c(N=Nc4ccc(N=Nc5cccc(F)c5)c5ccccc45)ccc(c23)N1 [Comparative compound A, reference compound] |  |  |  |  |  | 63
15 | CCCCCC1(C)Nc2cccc3c(N=Nc4ccc(N=Nc5ccccc5C(C)=O)c5ccccc45)ccc(c23)N1 (centres unmarked) [(1-50)] |  |  |  | 629 | 34,900 L · mol^−1 · cm^−1 | 98
16 | CCCCC1(C)Nc2cccc3c(N=Nc4ccc(N=Nc5ccccc5Cl)c5ccccc45)ccc(c23)N1 (centres unmarked) [(1-5)] |  |  |  | 629 | 35,100 L · mol^−1 · cm^−1 | 81

The next lines start with the values.

Row | Residual rate of compound [1] [%] | Absorption maximum wavelength [2, 4] [nm] | Molar light absorption coefficient [2, 4] [L/mol/cm] | Absorption maximum wavelength [2, 5] [nm] | Molar light absorption coefficient [2, 5] | Residual rate of compound [3] [%] | Structure (SMILES)
17 | 83 | 612 | 36300 |  |  |  | CC1(C)Nc2cccc3ccc(N=Nc4ccc(N=Nc5ccccc5Cl)c5ccccc45)c(c23)N1 [(3-1)]
18 | 86 | 586 | 29200 |  |  |  | COC(=O)c1ccccc1N=Nc1ccc(N=Nc2ccc3cccc4c3c2NC(C)(C)N4)c2ccccc12 [(3-3)]
19 | 85 | 617 | 36200 |  |  |  | CCCC1(C)Nc2cccc3ccc(N=Nc4ccc(N=Nc5ccccc5Cl)c5ccccc45)c(c23)N1 (centres unmarked) [Compound (3-7)]
20 | 96 | 615 | 36100 |  |  |  | CC(=O)c1ccccc1N=Nc1ccc(N=Nc2ccc3cccc4c3c2NC(C)(C)N4)c2ccccc12 [(3-6)]
21 |  |  |  | 631 | 33,000 L · mol^−1 · cm^−1 | 84 | CC(C)C1(C)Nc2cccc3c(N=Nc4ccc(N=Nc5ccccc5Cl)c5ccccc45)ccc(c23)N1 (centres unmarked) [(1-4)]
22 | 85 | 608 | 36000 |  |  |  | CC1(C)Nc2cccc3ccc(N=Nc4ccc(N=Nc5ccccc5F)c5ccccc45)c(c23)N1 [(3-2)]
23 |  |  |  | 627 | 34,000 L · mol^−1 · cm^−1 | 84 | CCC1(C)Nc2cccc3c(N=Nc4ccc(N=Nc5ccccc5Cl)c5ccccc45)ccc(c23)N1 (centres unmarked) [(1-2)]
24 | 95 | 627 | 32100 |  |  |  | CC1(C)Nc2cccc3ccc(N=Nc4ccc(N=Nc5ccccc5[N+](=O)[O-])c5ccccc45)c(c23)N1 [(3-5)]
25 |  |  |  | 619 | 35,000 L · mol^−1 · cm^−1 | 90 | CC1(C)Nc2cccc3c(N=Nc4ccc(N=Nc5ccccc5F)c5ccccc45)ccc(c23)N1 [(1-31)]
26 | 88 | 615 | 34800 |  |  |  | CCCCCC1(C)Nc2cccc3ccc(N=Nc4ccc(N=Nc5ccccc5Cl)c5ccccc45)c(c23)N1 (centres unmarked) [(3-10)]
27 | 87 | 616 | 35800 |  |  |  | CCCCC1(C)Nc2cccc3ccc(N=Nc4ccc(N=Nc5ccccc5Cl)c5ccccc45)c(c23)N1 (centres unmarked) [(3-8)]
28 |  |  |  | 624 | 34,500 L · mol^−1 · cm^−1 | 85 | CC1(C)Nc2cccc3c(N=Nc4ccc(N=Nc5ccccc5Cl)c5ccccc45)ccc(c23)N1 [(1-1)]
29 |  |  |  | 621 | 32,800 L · mol^−1 · cm^−1 | 74 | CC1(C)Nc2cccc3c(N=Nc4ccc(N=Nc5ccccc5Br)c5ccccc45)ccc(c23)N1 [(1-34)]
30 | 88 | 638 | 30500 |  |  |  | CC1(C)Nc2cccc3ccc(N=Nc4ccc(N=Nc5ccccc5C#N)c5ccccc45)c(c23)N1 [(3-4)]
31 |  |  |  | 622 | 33,100 L · mol^−1 · cm^−1 | 89 | CC1(CO)Nc2cccc3c(N=Nc4ccc(N=Nc5ccccc5Cl)c5ccccc45)ccc(c23)N1 (centres unmarked) [(1-17)]
